Assay results published in PubChem BioAssay (NCI).
Values joined by “and” are separate entries in the source; they are usually repeats but may differ in a detail not shown here. Equal entries are not always repeated.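 Step 1: Grow cells in 96-well plates. Step 2: Expose to compound for 48 hours at 5 concentrations. Step 3: Interpolate endpoints linearly; if unreached, use highest concentration. GI50 = concentration required for 50% inhibition of growth. At the TGI there is no net growth.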

Each molecule was assayed on BT-549 breast (assay: NCI anticancer screen, dose series, 48 h).
CC1(C)OC2C(CO[Si](C)(C)C(C)(C)C)OC(n3c(I)c(C#C[Si](C)(C)C)c(=O)[nH]c3=O)C2O1 (stereo not drawn) showed a GI50 of 13.2 µM and a TGI of 32.1 µM.
Work on CN(C)CC[C@H](CSc1ccccc1)Nc1ccc(S(=O)(=O)NC(=O)c2ccc(N3CCN(Cc4ccccc4-c4ccc(Cl)cc4)CC3)cc2)cc1[N+](=O)[O-] yielded a GI50 of 17.3 µM and a TGI of over 100 µM.
COc1ccc(-c2ccc(=O)oc2C#Cc2cc(OC)c(OC)c(OC)c2)cc1O was tested, and the GI50 was 0.275 µM and the TGI was 99.2 µM.
Work on O=C(/C=C/c1ccc[nH]1)c1ccc(-n2ccc(C(F)(F)F)n2)cc1 yielded a GI50 of 0.425 µM and a TGI of 2.5 µM.
In the case of O=C(c1ccco1)c1c(C(F)(F)F)nc2ccc(Cl)cc2[n+]1[O-], the GI50 is reported as over 100 µM and the TGI is reported as over 100 µM.
COc1ccc(-c2nnc3n(C)c(=O)c4ccccc4n23)cc1N was tested, and the GI50 was over 100 µM and the TGI was over 100 µM.
For Clc1cc2c(c(CSc3nc4ccccc4n4cccc34)c1)OCOC2, the GI50 was 78.1 µM and the TGI was over 100 µM.
COc1ccc2nc3ccccc3c(NCc3ccc(F)cc3)c2c1 showed a GI50 of 4.75 µM and a TGI of 11.4 µM.
For CN(C)C1CCN(C(=O)c2ccc(NC(=O)Nc3ccc(-c4nc(N5CCOCC5)c5cccn5n4)cc3)cc2)CC1, the GI50 was 0.177 µM and the TGI was 2.25 µM.
In the case of COc1cnc2c(c1)C(=O)c1c-2n(CCCNC2=NCCS2)c(=O)c2cc([N+](=O)[O-])ccc12, the GI50 is reported as 0.0544 µM and the TGI is reported as 1.92 µM.
In the case of COc1cc(N=Nc2ccc(O)c3ncccc23)c2ncccc2c1, the GI50 is reported as 4.31 µM and the TGI is reported as over 100 µM.
With CCn1c(O)c(/C=N/NC(=O)C(C)c2ccc(CC(C)C)cc2)sc1=S (stereo not drawn) the GI50 was 0.98 µM and the TGI was 10.3 µM.
For C[C@@H]1C[C@@H]([C@@H](CC2CC(=O)NC(=O)C2)OC(=O)CC(=O)c2ccccc2)C(=O)[C@@H](C)C1, the GI50 was 2.32 µM and the TGI was 66.7 µM.
In the case of Cc1nc(Nc2cccnc2)sc1C(=O)/C=C/c1ccc(F)cc1, the GI50 is reported as 2.83 µM and the TGI is reported as 8.87 µM.
N=c1c2c(-c3ccccc3)c(-c3ccccc3)n(Cc3ccccc3)c2ncn1C1CCC(O)CC1 (stereo not drawn) gave a GI50 of 2.55 µM and a TGI of 9.85 µM.
Molecule O=c1c(F)cn(Cc2ccc(C34CC5CC(CC(C5)C3)C4)c(O)c2)c(=O)n1Cc1ccc(C23CC4CC(CC(C4)C2)C3)c(O)c1 has a GI50 of 13.1 µM and a TGI of 31.3 µM.
For CCOC(=O)Nc1cc2c(c(N)n1)N=C(c1ccccc1)CO2, the GI50 was 23.1 µM and the TGI was over 100 µM.
With CC1CC2CCCC(O)=C2C(=O)O1 (stereo not drawn) the TGI was over 100 µM.
CC(C)(/C=C(\C#N)C(=O)N1CCC[C@@H](n2nc(-c3ccc(Oc4ccccc4)cc3F)c3c(N)ncnc32)C1)N1CCN(C2COC2)CC1 gave a GI50 of 5.42 µM and a TGI of 18.6 µM.
For O=c1oc2ccc(-c3ccc(F)cc3F)cc2c(=O)n1-c1cccc(C(F)(F)F)c1, the GI50 was 0.605 µM and the TGI was 3.7 µM.
For COC(=O)c1ccc2c(c1)C(=O)c1c-2n(CCCN=[N+]=[N-])c(=O)c2cc(OC)c(OC)cc12, the GI50 was over 100 µM and the TGI was over 100 µM.
Work on O=C(Cc1ccc(F)c(Cl)c1)Nc1cc(C2(C(F)(F)F)CC2)nn1CC1CCCCC1 yielded a GI50 of 3.41 µM and a TGI of 14.7 µM.
Molecule N#Cc1nn(-c2cc(=O)[nH]c3ccc(Cl)cc23)c(N)c1C#N has a GI50 of over 100 µM and a TGI of over 100 µM.
NNC(=O)CNc1cccc(Br)c1 showed a TGI of over 100 µM.
NC(N)=NCCCC(=O)O was tested, and the TGI was over 100 µM.
Molecule CCN1CCN(c2cc(C)c3cc(NC(=O)c4ccc(OC)c(OC)c4)ccc3n2)CC1 has a GI50 of over 33 µM and a TGI of over 100 µM.
For COC(=O)c1c2c(c(C)[n+]([O-])c1C)C(=O)C=C(NCc1ccc(F)cc1)C2=O, the GI50 was 1.3 µM and the TGI was 2.63 µM.
CCCC(=O)Nc1cn(COC)c(C(=O)N2C[C@@H]3C[C@]34C2=CC(=O)c2[nH]cc(C)c24)n1 was tested, and the TGI was 24.7 µM and 21.7 µM.
CC(=O)Nc1ccc(-c2csc(Nc3cccc(-c4csc(C)n4)c3)n2)cc1 was tested, and the GI50 was 8.34 µM and the TGI was 44.6 µM.
Molecule CNCCOC(=O)/C=C1\CC[C@H]2[C@@H]([C@@H](O)C(=O)[C@@H]3[C@]2(C)CC[C@H](O)[C@]3(C)C(=O)OC)[C@H]1C has a GI50 of 0.286 µM and a TGI of 1.09 µM.
Molecule Cc1nnc(Nc2ccc(NC(=O)Nc3ccc(Cl)cc3)cc2)c2ccccc12 has a GI50 of 2.21 µM and a TGI of 5.56 µM.
With CC(=O)ON1CCCC(P(=O)(OCCSC(=O)C(C)(C)C)OCCSC(=O)C(C)(C)C)C1=O (stereo not drawn) the GI50 was 0.979 µM and the TGI was 7.24 µM.
Work on C=CCC1(c2ccc(OC)cc2)C=CC(=O)CC1 (stereo not drawn) yielded a TGI of over 100 µM.
For COC(=O)[C@]12CC[C@@H](C)[C@H](C)[C@@H]1C1=CC[C@@H]3[C@@]4(C)C[C@@H](O)[C@H](O)[C@@](C)(CO)C4=CC[C@@]3(C)[C@]1(C)CC2, the GI50 was 16.2 µM and the TGI was 31.7 µM.
COc1ccc(C(=O)Nc2ccc(O)c(=O)cc2)cc1 showed a TGI of over 100 µM.
Work on Cc1nc(N)sc1N=Nc1ccccc1Br yielded a TGI of 46.4 µM.
For NS(=O)(=O)c1ccc(N=Nc2c(O)c(C(=O)O)cc3ccccc23)cc1, the TGI was over 100 µM.
In the case of CC(NCCC(c1ccccc1)c1ccccc1)c1ccccc1 (stereo not drawn), the GI50 is reported as 5.42 µM and the TGI is reported as 17.6 µM.
With O=C(Nc1ccc(Br)cc1F)c1cc(Cl)ccc1O the GI50 was 0.44 µM and the TGI was 2.1 µM.
NC(N)=N/N=C/c1c(Cl)cccc1Cl was tested, and the GI50 was 16 µM and the TGI was 44.9 µM.
S=c1[nH]c(=S)c2cc3ccccc3nc2[nH]1 was tested, and the GI50 was 35.4 µM and the TGI was over 100 µM.
O=C(Nc1cccc(C(F)(F)F)c1)c1ccc(NC2=C(Cl)C(=O)N(Cc3ccc(Cl)cc3Cl)C2=O)cc1 was tested, and the GI50 was 2.2 µM and the TGI was 5.71 µM.

Each molecule was assayed on DLD-1 colon (assay: NCI anticancer screen, dose series, 48 h).
For C#CC1/C(=C\C(=O)OC)CCCC1O (stereo not drawn), the TGI was over 100 µM.
CC12CCC(=O)C[C@H]1CCC(OC=O)C2Br (stereo partly drawn) gave a TGI of over 100 µM.
Work on COC1C(OC(=S)Nc2ccccc2)c2ccccc2N1C(C)=O (stereo not drawn) yielded a TGI of over 100 µM.
CC1=Cc2cccc(C)c2C(=O)C1=O gave a TGI of 4.32 µM.
With Cc1ccc(C)c(NC(=O)c2cccc([N+](=O)[O-])c2O)c1 the TGI was over 100 µM.
Molecule On1c(-c2ccccc2)c(-c2ccccc2N2CCCC2)c2ccccc21 has a TGI of over 100 µM.
CC(C)(C)c1cc(C(P(=O)(O)O)P(=O)(O)O)cc(C(C)(C)C)c1O gave a TGI of over 100 µM.
CC(C)C1=Cc2ccc3c(c2C(=O)C1=O)CCCC3(C)C showed a TGI of 5.08 µM.
CCOC(=O)c1nc2c(OC)nn(O)cc-2c1[N+](=O)[O-] showed a TGI of 33.7 µM.
In the case of O=C(/C(=C/c1ccc(Cl)cc1)c1ccccc1)c1ccccc1, the TGI is reported as 31.8 µM.

These molecules were tested on DMS 273 small cell lung (assay: NCI anticancer screen, dose series, 48 h).
C#CC1/C(=C\C(=O)OC)CCCC1O (stereo not drawn) gave a TGI of over 100 µM.
In the case of CC12CCC(=O)C[C@H]1CCC(OC=O)C2Br (stereo partly drawn), the TGI is reported as over 100 µM.
COC1C(OC(=S)Nc2ccccc2)c2ccccc2N1C(C)=O (stereo not drawn) showed a TGI of over 100 µM.
CC1=Cc2cccc(C)c2C(=O)C1=O was tested, and the TGI was 38.2 µM.
With Cc1ccc(C)c(NC(=O)c2cccc([N+](=O)[O-])c2O)c1 the TGI was 77.5 µM.
For COCC(OC)C(CC=C(C#N)C#N)OC (stereo not drawn), the TGI was over 100 µM.
For On1c(-c2ccccc2)c(-c2ccccc2N2CCCC2)c2ccccc21, the TGI was over 100 µM.
In the case of CC(C)(C)c1cc(C(P(=O)(O)O)P(=O)(O)O)cc(C(C)(C)C)c1O, the TGI is reported as over 100 µM.
CC(C)C1=Cc2ccc3c(c2C(=O)C1=O)CCCC3(C)C gave a TGI of 14.8 µM.

What follows are molecules tested on HOP-18 NSCLC (assay: NCI anticancer screen, dose series, 48 h).
Molecule C#CC1/C(=C\C(=O)OC)CCCC1O (stereo not drawn) has a TGI of over 100 µM.
With CC12CCC(=O)C[C@H]1CCC(OC=O)C2Br (stereo partly drawn) the TGI was over 100 µM.
In the case of COC1C(OC(=S)Nc2ccccc2)c2ccccc2N1C(C)=O (stereo not drawn), the TGI is reported as over 100 µM.
CC1=Cc2cccc(C)c2C(=O)C1=O was tested, and the TGI was 2.79 µM.
Work on Cc1ccc(C)c(NC(=O)c2cccc([N+](=O)[O-])c2O)c1 yielded a TGI of over 100 µM.
For On1c(-c2ccccc2)c(-c2ccccc2N2CCCC2)c2ccccc21, the TGI was over 100 µM.
Molecule CC(C)(C)c1cc(C(P(=O)(O)O)P(=O)(O)O)cc(C(C)(C)C)c1O has a TGI of over 100 µM.
CC(C)C1=Cc2ccc3c(c2C(=O)C1=O)CCCC3(C)C was tested, and the TGI was 6.27 µM.
